# Values quoted from earlier work in patent US4733002A, “Lipoxygenase inhibitor” (Green Cross Corporation, priority 1984, dated 1988).
# System: 5-lipoxygenase
# Settings: prior art, statement in words
row,5-lipoxygenase inhibiting activity,Structure (SMILES)
1,not a satisfactory one,O=C(O)/C=C/c1ccc(O)c(O)c1 [caffeic acid]
2,not a satisfactory one,COC(=O)C=Cc1ccc(O)c(O)c1 [its methyl ester]
